This note sets out measurements from patent US9108959B2, “Process for the preparation of an orexin receptor antagonist” (Merck Sharp & Dohme Corp., priority 2011, dated 2015).

This series is described as follows: relative thermodynamic stability of crystalline forms (slurry of equal amounts of the two forms in EtOH at various temperatures). Format: physicochemical. As to conditions: for temperatures at which the form is the thermodynamically most stable crystalline form: enantiotropically related forms. As for the experimental part:
Anhydrous form I and Anhydrous form II are enatiotropically related. […] The transition temperature between anhydrous form I and anhydrous form II was determined by slurring a mixture containing equal amounts of the two forms in EtOH at various temperatures. The transition temperature between anhydrous form I and anhydrous form II is between 35 and 40° C. […] Anhydrous Form II can be synthesized using a crystallization process that is more efficient and results in improved particle size and morphology control relative to anhydrous form I. Anhydrous form II has better crystallinity, better filtration properties and gives better purity rejection than anhydrous form I. Anhydrous form II has better processability for preparing formulations than Anhydrous form I.

SMILES strings stand for the structures.

Regarding `Cc1ccc(-n2nccn2)c(C(=O)N2CCN(c3nc4cc(Cl)ccc4o3)CC[C@H]2C)c1` [Anhydrous form II, [(7R)-4-(5-chloro-1,3-benzoxazol-2-yl)-7-methyl-1,4-diazepan-1-yl][5-methyl-2-(2H-1,2,3-triazol-2-yl)phenyl]methanone], the “temperatures at which the form is the thermodynamically most stable crystalline form” value was at least 40 °C.
Turning to `Cc1ccc(-n2nccn2)c(C(=O)N2CCN(c3nc4cc(Cl)ccc4o3)CC[C@H]2C)c1` [Anhydrous form I, [(7R)-4-(5-chloro-1,3-benzoxazol-2-yl)-7-methyl-1,4-diazepan-1-yl][5-methyl-2-(2H-1,2,3-triazol-2-yl)phenyl]methanone], the “temperatures at which the form is the thermodynamically most stable crystalline form” value is at most 35 °C. Further, where the note is “at 25° C.”, the “stability of crystalline phase” value is “most stable crystalline phase”.
